# Measured values taken from patent US10676471B2, “Cycloalkyl-linked diheterocycle derivatives” (Pfizer Inc., priority 2014, dated 2020).
# System: BT20 Cell
# Assay: Cancer Cell Lysate Total L-Glutamate Assay
# Type: cell-based
# Settings: Homo sapiens, BT-20, 2 h, total L-glutamate in cell lysate, BT20 cells, 2 hour incubation with test compound
# Method: Cancer Cell Lysate Total L-Glutamate Assay
# Cancer cell lines (BT20, HCT116, SKOV3, HCC70, SUM149, MDA-MB-231, etc.) were plated in 96 well plates and were used for the total L-glutamate assay when the monolayer was ca. 80% confluent. The media was changed and fresh media containing L-glutamine was added to the 96 well plates, just before incubation of the cells with test compound. The test compound was diluted in 100% DMSO using a two-fold or three-fold serial dilution. Small volumes of the dilutions of test compound were added to the 96 well plates so the final DMSO concentration was 0.5% v/v in the cell culture medium. The cells were incubated at 37° C., 5% CO2, and 95% air for 2 hours. Following the 2 hour incubation, the cells were washed with water 2 times. After the last water wash, 100 μL of 50 mM Tris-HCl pH 7.4 and 0.01% Tween-20 was added to each well and the plate was frozen at −80° C. The 96 well plate was frozen and thawed a total of 3 times and then sonicated for 5 min at 4° C. in a bath sonicator. Following sonication, the 96 well plate was centrifuged for 5 min at 1000 rpm and 10 μL of the supernatant was transferred to a 384 well assay plate.
# Total L-glutamate (L-glutamic acid) in the cell lysis supernatant was detected using glutamate oxidase, horseradish peroxidase and Amplex Red reagent (10-acetyl-3,7-dihydroxy phenoxazine, Invitrogen # A22177). In this assay, L-glutamate was oxidized by glutamate oxidase to produce alpha-ketoglutarate (2-oxopentane dioic acid), NH3 and H202. The H2O2 (hydrogen peroxide) was used by horseradish peroxidase (HRP) to oxidize the Amplex Red Reagent to resorufin which is a fluorescent molecule. When resorufin is excited with light with a wavelength 530-560 nm, it emits light at approximately 585 nm. For detection of total L-glutamate in 10 μL of lysate, 15 μL of an enzyme mixture was added to each well of the 384 well assay plate. The enzyme mixture consisted of 50 mM Tris-HCl pH 7.4, 0.01% Tween-20, 50 μM Amplex Red reagent (final concentration), 0.04 U/mL L-glutamate oxidase (final concentration), and 0.125 U/mL HRP (final concentration). The 384 well assay plate was incubated at room temperature for 5 min and then the fluorescence intensity of each well was measured at 585 nm using a 530-560 nm excitation wavelength in a plate based fluorimeter such as an LJL Analyst or a Tecan Infinite plate reader. Standard curves were constructed for this assay using dilutions of a L-glutamate standard. IC50 were calculated by plotting the relative fluorescent units vs log of the inhibitor concentration and fitting the data to the four parameter logistic equation.
# Reference: Chapman J. and Zhou M. (1999) Microplate-based fluorometric methods for the enzymatic determination of I-glutamate: application in measuring I-glutamate in food samples. Analytica Chim Acta 402:47-52.
row,IC50 [nM],Compound
1,0.2,"CCC(=O)Nc1ccc(C[C@@H]2CC[C@H](c3nnc(NC(=O)Cc4ccn(C)n4)s3)C2)nn1 (single isomer, unassigned) [Example 92, N-(6-{[(cis)-3-(5-{[(1-methyl-1H-pyrazol-3-yl)acetyl]amino}-1,3,4-thiadiazol-2-yl)cyclopentyl]methyl}pyridazin-3-yl)propanamide]"
2,0.4,"CC(C)C(=O)Nc1ccc(C[C@@H]2CC[C@H](c3nnc(NC(=O)Cc4ccccn4)s3)C2)nn1 (single isomer, unassigned) [Example 77, 2-methyl-N-(6-{[(cis)-3-{5-[(pyridin-2-ylacetyl)amino]-1,3,4-thiadiazol-2-yl}cyclopentyl]methyl}pyridazin-3-yl)propanamide]"
3,1,"O=C(Cc1ccccn1)Nc1ccc(C2CC3(C2)CC(c2ccc(NC(=O)Cc4ccccn4)nn2)C3)nn1 (racemic) [Example 25, N,N′-(spiro[3.3]heptane-2,6-diyldipyridazine-6,3-diyl)bis[2-(pyridin-2-yl)acetamide]]"
4,2.8,"O=C(Cc1ccccn1)Nc1nnc(C[C@H]2CC[C@@H](c3nnc(NC(=O)Cc4ccccn4)s3)C2)s1 (racemic) [Example 152, (rac)-2-(pyridin-2-yl)-N-(5-{[(cis)-3-{5-[(pyridin-2-ylacetyl)amino]-1,3,4-thiadiazol-2-yl}cyclopentyl]methyl}-1,3,4-thiadiazol-2-yl)acetamide]"
5,6.4,"O=C(Cc1ccccn1)Nc1nnc(CC2CCC(c3nnc(NC(=O)Cc4ccccn4)s3)C2)s1 (racemic) [Example 3, (rac)-2-(pyridin-2-yl)-N-(5-{[(cis)-3-{5-[(pyridin-2-ylacetyl)amino]-1,3,4-thiadiazol-2-yl}cyclopentyl]methyl}-1,3,4-thiadiazol-2-yl)acetamide]"
6,1.9,"CC(C(=O)Nc1nnc(CC2CCC(c3nnc(NC(=O)C(C)c4cccnc4)s3)C2)s1)c1cccnc1 (racemic) [Example 30, (rac)-2-(pyridin-3-yl)-N-(5-{[(cis)-3-(5-{[2-(pyridin-3-yl)propanoyl]amino}-1,3,4-thiadiazol-2-yl)cyclopentyl]methyl}-1,3,4-thiadiazol-2-yl)propanamide]"
7,2,"CC(=O)Nc1nnc([C@H]2C[C@H](Cc3ccc(NC(=O)Cc4ccccn4)nn3)C2)s1 (single isomer, unassigned) [Example 115, N-[6-({trans-3-[5-(acetylamino)-1,3,4-thiadiazol-2-yl]cyclobutyl}methyl)pyridazin-3-yl]-2-(pyridin-2-yl)acetamide]"
8,1.4,"CC(C)C(=O)Nc1nnc([C@H]2CC3(C[C@H](c4nnc(NC(=O)C(C)C)s4)C3)C2)s1 (stereo partly shown) [Example 95, N,N′-(spiro[3.3]heptane-2,6-diyldi-1,3,4-thiadiazole-5,2-diyl)bis(2-methylpropanamide)]"
9,1.9,"CC(C)C(=O)Nc1nnc(C2CC3(CC(c4nnc(NC(=O)Cc5ccn(C)n5)s4)C3)C2)s1 (racemic) [Example 136, 2-methyl-N-{5-[6-(5-{[(1-methyl-1H-pyrazol-3-yl)acetyl]amino}-1,3,4-thiadiazol-2-yl)spiro[3.3]hept-2-yl]-1,3,4-thiadiazol-2-yl}propanamide]"
10,2,"Cn1cnc(CC(=O)Nc2nnc([C@H]3CC[C@@H](Cc4ccc(NC(=O)Cc5ccccn5)nn4)C3)s2)c1 (relative stereo) [Example 128, 2-(1-methyl-1H-imidazol-4-yl)-N-{5-[(cis)-3-({6-[(pyridin-2-ylacetyl)amino]pyridazin-3-yl}methyl)cyclopentyl]-1,3,4-thiadiazol-2-yl}acetamide]"
11,8.5,"CC(C)C(=O)Nc1nnc(C2CC3(C2)CC(c2nnc(NC(=O)C(C)C)s2)C3)s1 (racemic) [Example 94, (rac)-N,N′-(spiro[3.3]heptane-2,6-diyldi-1,3,4-thiadiazole-5,2-diyl)bis(2-methylpropanamide)]"
12,38.5,"CC(=O)Nc1nnc(C[C@H]2C[C@@H](c3nnc(NC(C)=O)s3)C2)s1 (single isomer, unassigned) [Example 62, N-[5-({cis-3-[5-(acetylamino)-1,3,4-thiadiazol-2-yl]cyclobutyl}methyl)-1,3,4-thiadiazol-2-yl]acetamide]"
13,0.4,"CC(C)C(=O)Nc1nnc([C@H]2CC[C@@H](Cc3ccc(NC(=O)Cc4ccccn4)nn3)C2)s1 [Example 120, 2-methyl-N-{5-[(1S,3R)-3-({6-[(pyridin-2-ylacetyl)amino]pyridazin-3-yl}methyl)cyclopentyl]-1,3,4-thiadiazol-2-yl}propanamide]"
14,0.4,"COCCC(=O)Nc1nnc([C@H]2CC[C@@H](Cc3ccc(NC(=O)Cc4ccccn4)nn3)C2)s1 (single isomer, unassigned) [Example 122, 3-methoxy-N-{5-[(cis)-3-({6-[(pyridin-2-ylacetyl)amino]pyridazin-3-yl}methyl)cyclopentyl]-1,3,4-thiadiazol-2-yl}propanamide]"
15,23.8,"CC(=O)Nc1nnc(C2CC[C@@H](Cc3nnc(NC(=O)c4ccccc4)s3)C2)s1 (single isomer, unassigned) [Example 13, N-[5-({(cis)-3-[5-(acetylamino)-1,3,4-thiadiazol-2-yl]cyclopentyl}methyl)-1,3,4-thiadiazol-2-yl]benzamide]"
16,1820,"Nc1nnc(CC2CC[C@@H](c3nnc(NC(=O)Cc4ccccc4)s3)C2)s1 (single isomer, unassigned) [Example 65, N-(5-{(cis)-3-[(5-amino-1,3,4-thiadiazol-2-yl)methyl]cyclopentyl}-1,3,4-thiadiazol-2-yl)-2-phenylacetamide]"
17,1.7,"O=C(Cc1ccccn1)Nc1nnc(C[C@@H]2CC[C@H](c3nnc(Nc4ccccn4)s3)C2)s1 (single isomer, unassigned) [Example 133, 2-(pyridin-2-yl)-N-[5-({(cis)-3-[5-(pyridin-2-ylamino)-1,3,4-thiadiazol-2-yl]cyclopentyl}methyl)-1,3,4-thiadiazol-2-yl]acetamide]"
18,1.8,"O=C(Cc1ccccn1)Nc1ccc([C@H]2C[C@H](Cc3nnc(NC(=O)Cc4ccccn4)s3)C2)nn1 (single isomer, unassigned) [Example 123, 2-(pyridin-2-yl)-N-{5-[(trans-3-{6-[(pyridin-2-ylacetyl)amino]pyridazin-3-yl}cyclobutyl)methyl]-1,3,4-thiadiazol-2-yl}acetamide]"
19,7760,"CC(=O)Nc1nnc(C[C@H]2CC[C@@H](c3nnc(NC(=O)Cc4cncnc4)s3)C2)s1 (single isomer, unassigned) [Example 59, N-{5-[(cis)-3-{[5-(acetylamino)-1,3,4-thiadiazol-2-yl]methyl}cyclopentyl]-1,3,4-thiadiazol-2-yl}-2-(pyrimidin-5-yl)acetamide]"
20,47.9,"CC(=O)Nc1nnc(C2CCC(Cc3nnc(NC(=O)c4ccccc4)s3)C2)s1 (racemic) [Example 11, N-[5-({(cis)-3-[5-(acetylamino)-1,3,4-thiadiazol-2-yl]cyclopentyl}methyl)-1,3,4-thiadiazol-2-yl]benzamide]"
21,137,"CC(=O)Nc1nnc(C[C@@H]2CC[C@H](c3nnc(NC(=O)Cc4ccncn4)s3)C2)s1 (single isomer, unassigned) [Example 20]"
22,0.3,"Cn1ccc(CC(=O)Nc2nnc(C3CC4(C3)CC(c3nnc(NC(=O)Cc5ccn(C)n5)s3)C4)s2)n1 (racemic) [Example 96, (rac)-N,N-(spiro[3.3]heptane-2,6-diyldi-1,3,4-thiadiazole-5,2-diyl)bis[2-(1-methyl-1H-pyrazol-3-yl)acetamide]]"
23,33.3,"O=C(Cc1ccccc1)Nc1nnc(C[C@H]2CC[C@@H](c3nnc(NC(=O)Cc4ccccc4)s3)C2)s1 (single isomer, unassigned) [Example 10]"
24,> 50000,"CC(=O)Nc1nnc(C2CC[C@H](Cc3nnc(NC(=O)c4ccccc4)s3)C2)s1 (single isomer, unassigned) [Example 12, N-[5-({(cis)-3-[5-(acetylamino)-1,3,4-thiadiazol-2-yl]cyclopentyl}methyl)-1,3,4-thiadiazol-2-yl]benzamide]"
25,9.5,"CCC(=O)Nc1nnc([C@H]2C[C@@H](Cc3nnc(NC(=O)Cc4ccccn4)s3)C2)s1 (single isomer, unassigned) [Example 105, N-{5-[cis-3-({5-[(pyridin-2-ylacetyl)amino]-1,3,4-thiadiazol-2-yl}methyl)cyclobutyl]-1,3,4-thiadiazol-2-yl}propanamide]"
